Test results reported in paper PMC6938011, “Antiplasmodial profile of selected compounds from Malaria Box: in vitro evaluation, speed of action and drug combination studies” (Malaria Journal, 2019).
Entries after “also recorded” stand apart in the source; their conditions may differ. Where two headings read alike, the source gives them in different places.

Key:
[1] = tested on: Hepatocarcinoma cells (HepG2); assay: Cytotoxicity evaluation, MTT assay; type: cell-based, human; conditions: HepG2, 72 h, read-out: IC50^HepG2, MTT Average (confidence interval-95%)
Protocol: (§1) Hepatocarcinoma cells (HepG2) were cultivated in RPMI medium supplemented with 10% (v/v) fetal bovine serum and 0.2% (v/v) penicillin/streptomycin. The antibiotics were added to the medium to eliminate the potential interference of microbial contamination. Cells were cultivated at 37 °C and 5% CO2; the supplemented medium was changed every 2 days.
(§2) For the experimental procedures, cells were trypsinized and transferred to a 96-well plate at 30,000 cells per well and incubated at 37 °C overnight for cell adhesion. Then, serial dilutions of the inhibitor candidates were added to the plate. Cells without any compounds were used as positive growth controls. The plate was incubated at 37 °C and 5% CO2 for 72 h. After incubation, the highest compound concentration to be considered (highest concentration without precipitation) was observed by microscopy. Cytotoxicity was evaluated by two different methods. The first is a colorimetric assay based on metabolic cell activity in the presence of 3-(4,5-dimethylthiazol-2-yl)-2,5-diphenyltetrazolium bromide (MTT). Briefly, mitochondrial enzymes can convert the MTT dye into the purple insoluble compound formazan. To each well, 20 µL MTT at 5 mg/mL was added, followed by incubation at 37 °C for 3 to 5 h. After incubation, the supernatant was removed, and formazan crystals were solubilized in 100 µL DMSO. The absorbance, which is proportional to the number of viable cells, was determined using a SpectraMAX Plus 384 plate reader (Molecular Devices Corp., Sunnyvale, CA) (λ = 570 nm). The second method is based on the uptake of neutral red, a dye that is retained inside the lysosomes of viable cells. To each well, after removal of culture media, 200 µL neutral red medium 40 µg/mL was added, followed by incubation at 37 °C for 3 to 5 h. After incubation, supernatant was dispensed, and 200 µL 0.5% (v/v) formaldehyde in 1% (m/v) CaCl2 was added to remove excess of the dye for 5 min. Supernatant was dispensed, and 100 µL alcohol-acid solution (50% (v/v) ethanol, 1% (v/v) glacial acetic acid) was added, and the plate was stirred until a homogeneous solution was formed. The absorbance was determined using a SpectraMAX Plus 384 plate reader (Molecular Devices Corp., Sunnyvale, CA) (λ = 540 nm). For both methods, the half maximal inhibitory concentration (IC50^HepG2) was determined by non-linear regression analysis of the resulting concentration-response curve using the software Origin 2016 (OriginLab Corporation).

[2] = tested on: P. berghei NK65 strain; assay: In vivo suppressive parasite growth test against Plasmodium berghei; set-up: species or system Swiss outbred mice; conditions: 50 mg/kg oral gavage daily for 3 days, P. berghei-infected mice
Protocol: A suppressive parasite growth test was performed in mice infected with P. berghei NK65 strain (originally received from the New York University Medical School), as described previously, with some modifications. Briefly, adult Swiss outbred mice (20 ± 2 g weight) were intraperitoneally inoculated with 1 × 10^5 red blood cells infected with P. berghei. The infected mice were maintained together for at least 2 h and then randomized into groups of 5 animals per cage, which were subsequently administered 50 mg/kg of each compound diluted in 3% (v/v) DMSO by oral gavage daily for 3 days. Two control groups were used in parallel: one was treated with CQ (20 mg/kg) and the other was treated with the vehicle. Blood smears from mouse tails were prepared on days 5 and 7 post-infection and then fixed with methanol, stained with Giemsa 10% (v/v), and examined under the microscope.

[3] = tested on: P. falciparum 3D7 strain; assay: SYBR Green I inhibition assay for the asexual stages of P. falciparum; type: cell-based, Plasmodium falciparum; conditions: 72 h, read-out: IC50^Pf Average (confidence interval-95%)
Protocol: The P. falciparum 3D7 strain was kept in culture in a humidified incubator at 37 °C in RPMI-1640 medium with 25 mM NaHCO3, 25 mM HEPES (pH 7.4), 11 mM D-glucose, 3.67 mM hypoxanthine and 25 µg/mL gentamicin, supplemented with 0.5% (m/v) AlbuMAX II. The culture medium was changed daily, and the parasitaemia was maintained below 10% with 2.5% haematocrit in human erythrocytes.
The parasites were synchronized through sterile 5% (m/v) D-sorbitol treatment over 10 min at 37 °C for the enrichment of ring-stage parasites. The cultures were pelleted by centrifugation at 600×g over 5 min. The parasitaemia was determined by microscope analysis of thin blood smears stained with Giemsa 10% (v/v) after methanol fixation. The initial parasitaemia was calculated from 1000 red blood cells (RBCs), and cultures were diluted to 0.5% parasitaemia and 2% haematocrit by adding the appropriate volumes of erythrocytes and medium. Parasite aliquots of 180 µL were distributed into 96-well plates previously prepared with 20 µL aliquots of a tenfold concentrated compound. Negative and positive control wells corresponding to non-parasitized erythrocytes and parasite cultures in the absence of compounds were set in parallel. The DMSO concentration was maintained below 0.05% (v/v). The plates were incubated for 72 h at 37 °C in a humidified incubator with a gas mixture of 90% N2, 5% O2 and 5% CO2. After incubation, the culture medium was removed, and the cells were resuspended in 100 µL PBS buffer (116 mM NaCl, 10 mM Na2HPO4, 3 mM KH2PO4) and lysed with 100 µL lysis buffer (20 mM Tris base, 5 mM EDTA, 0.0008% (v/v) Triton X-100, 0.008% (m/v) saponin, pH 8.0) containing 0.002% (v/v) SYBR Green I. Plates were incubated at room temperature for 30 min, and the fluorescence corresponding to the parasitic density was determined using a SpectraMAX Gemini EM plate reader (Molecular Devices Corp., Sunnyvale, CA) (excitation at 485 nm, emission at 535 nm). The half maximal inhibitory concentration (IC50^Pf) was determined by non-linear regression analysis of the resulting concentration-response curve using the software Origin 2016 (OriginLab Corporation).

[4] = tested on: Hepatocarcinoma cells (HepG2); assay: Cytotoxicity evaluation, neutral red assay; type: cell-based, human; conditions: HepG2, 72 h, read-out: IC50^HepG2, NR Average (confidence interval-95%)
Protocol: as §1, §2

[5] = set-up: method as in PMID 27467575; conditions: previous pharmacokinetics studies ref 30; cited from earlier work
[6] = tested on: P. falciparum; assay: Combination assays, isobologram analysis (FIC50 pairs); type: cell-based, Plasmodium falciparum; conditions: for Isobologram data, Additive: fraction of FIC50 pairs / Isobologram data, Additive: number of FIC50 pairs / Isobologram data, Antagonistic: fraction of FIC50 pairs / Isobologram data, Antagonistic: number of FIC50 pairs / Isobologram data, Synergic: number of FIC50 pairs: combination with artesunate; for Combination profile with artesunate: isobologram, IC50 equivalent ratios 1:4, 2:3, 1:1, 3:2, 4:1
Protocol: Combinations of anti-malarial candidates with artesunate, an artemisinin derivative, were tested in fixed molar ratios based on the individual IC50 values that were previously determined by the SYBR Green I assay. Traditionally, a line (isobole) of additivity is used to distinguish between additive, synergic, and antagonistic interaction profiles. […] Thus, a systematic consideration of additivity ranges was included in the isobologram analysis, as previously described by Grabovsky and Tallarida. Concentration-response curves of individual compounds were used in the calculation of each pair’s additivity range (area within the upper and lower limits in Figs. 4 and 5). Fractional inhibitory concentration (FIC50) pairs plotted as points inside the additivity range indicate the expected sum of each compound effect, while points above and below the range indicate antagonistic and synergic interactions, respectively. The selected inhibitors were combined with artesunate in the IC50 equivalent ratios of 1:4, 2:3, 1:1, 3:2 and 4:1 for the construction of the isobolograms.

[7] = set-up: method as in PMID 27467575; conditions: previous pharmacokinetics studies ref 30; cited from earlier work; remark: listed apart in the source
[8] = tested on: P. falciparum 3D7 strain; set-up: method as in PMID 23798988; conditions: reported potency of Malaria Box compounds ref 13, read-out: Reported IC50^Pf; cited from earlier work
[9] = tested on: asexual intraerythrocytic stages of P. falciparum; assay: Speed of action studies (microscopy of thin blood smears); type: cell-based, Plasmodium falciparum; conditions: ring-stage parasites; for Parasite morphology during incubation: compound at tenfold the IC50, microscopy up to 36 h; for Speed of action: compound at tenfold the IC50, observed 0-36 h
Protocol: Parasites in thin blood smears were observed by microscopy after 0, 8, 16, 24 and 36 h of incubation.

[10] = tested on: bc1 complex; set-up: method as in PMID 27467575; conditions: mitochondrial electron transport chain ref 30; cited from earlier work
[11] = tested on: P. falciparum; assay: Combination assays, isobologram analysis (FIC50 pairs); type: cell-based, Plasmodium falciparum
[12] = Solubility in the cytotoxicity assay conditions; type: physicochemical; conditions: HepG2 cytotoxicity assay conditions
Protocol: For the experimental procedures, cells were trypsinized and transferred to a 96-well plate at 30,000 cells per well and incubated at 37 °C overnight for cell adhesion. Then, serial dilutions of the inhibitor candidates were added to the plate. Cells without any compounds were used as positive growth controls. The plate was incubated at 37 °C and 5% CO2 for 72 h. After incubation, the highest compound concentration to be considered (highest concentration without precipitation) was observed by microscopy. Cytotoxicity was evaluated by two different methods. The first is a colorimetric assay based on metabolic cell activity in the presence of 3-(4,5-dimethylthiazol-2-yl)-2,5-diphenyltetrazolium bromide (MTT). Briefly, mitochondrial enzymes can convert the MTT dye into the purple insoluble compound formazan. […] The absorbance, which is proportional to the number of viable cells, was determined using a SpectraMAX Plus 384 plate reader (Molecular Devices Corp., Sunnyvale, CA) (λ = 570 nm). […] The absorbance was determined using a SpectraMAX Plus 384 plate reader (Molecular Devices Corp., Sunnyvale, CA) (λ = 540 nm). For both methods, the half maximal inhibitory concentration (IC50^HepG2) was determined by non-linear regression analysis of the resulting concentration-response curve using the software Origin 2016 (OriginLab Corporation).

[13] = tested on: P. falciparum; conditions: cited from earlier work

IC50 [3] [nM] | Structure (SMILES) | IC50 [1] [nM] | IC50 [4] [nM] | Isobologram data, Additive: fraction of FIC50 pairs [6] [%] | Isobologram data, Additive: number of FIC50 pairs [6] | Isobologram data, Antagonistic: fraction of FIC50 pairs [6] [%] | Isobologram data, Antagonistic: number of FIC50 pairs [6] | Isobologram data, Synergic: number of FIC50 pairs [6] | Combination profile with artesunate [6] | IC50 [8] [nM] | Parasite morphology during incubation [9] | Speed of action [9] | Combination profile with proguanil [11] | other results
400 | CCOC(=O)C1=C(C)N=c2sc(=Cc3cc(Cl)ccc3O)c(=O)n2C1c1ccc(OC)cc1 (stereo not drawn) [Compound 2] | 22000 | 22000 | 92 | 12 | 8 | 1 | 0 | additive profile | 489 | pyknotic nuclei formation | Fast |  | % of reduction of parasitaemia, day 5 after infection [2]: 64%; % of reduction of parasitaemia, day 7 after infection [2]: 33%; Plasma protein binding [5]: > 99%; Combination profile with artesunate ([6]; listed as 02): Additivity; Oral bioavailability [7]: poor
1200 | O=C1c2ccccc2-c2nnc(-c3ccc(Br)cc3)cc21 [Compound 6] | > 12500 | > 12500 | 15 | 2 | 85 | 11 | 0 |  | 1070 | young trophozoites were observed after 36 h | slow-acting and Slow | highly synergic | Molecular target [10]: inhibitor of the mitochondrial electron transport chain targeting the bc1 complex; Combination profile with artesunate ([6]; listed as 06): Antagonism
850 | Cc1cc(NC(=O)c2ccc(-c3ccccc3)cc2)no1 [Compound 10] |  |  | 38 | 5 | 62 | 8 | 0 | antagonistic; also recorded: Antagonism | 693 | punctual shapes after 16 h | Fast |  | Solubility in the assay conditions [12]: low solubility
 | O=C1C(O)=C([C@H]2CC[C@H](c3ccc(Cl)cc3)CC2)C(=O)c2ccccc21 [atovaquone, reference compound] |  |  |  |  |  |  |  | antagonistic |  |  |  | synergic | Speed of action (literature) [13]: slow
